Common to all, as to type: cell-based
For test [1], the system named is neural precursor cells (NPCs). The test can be described thus: Control over growth and differentiation of neural precursor cells on Ara-C coated Si NWs (immunofluorescence). The procedure: Si NWs were grown on a Si substrate via CVD. Substrates were first prepared by immobilizing Au nanoparticles on a precleaned Si (111) substrate using a thin polyelectrolyte layer as previously described (J. Am. Chem. Soc. 2008, 130, 6252-6258; Nano Lett. 2004, 4, 1987-1990; J. Am. Chem. Soc. 2001, 123, 9769-9779; J. Am. Chem. Soc. 2008, 130, 6252-6258). Si NWs were then synthesized by the vapor transport method using SiCl4 as the precursor for Si NW growth and H2 (10%) in argon as the carrier gas with minor modifications from that which was previously reported (Nano Lett. 2005, 5, 457-460). Briefly, a Si (111) substrate, covered with Au nanoparticles patterned into stripes by flowing a solution of 70 nm Au nanoparticles across poly-l-lysine coated silicon using PDMS microfluidic channels, was placed inside a 1″ diameter quartz tube and loaded at the center of a 12″ horizontal tube furnace (Lindberg/Blue M). After the quartz tube was evacuated and flushed repeatedly with H2 (10%) in argon gas mixture to minimize oxygen contamination, it was charged with H2 (10%) in argon gas up to 760 torr and the pump line was quickly replaced with a line that enabled venting through a bubbler filled with a saturated K2CO3 aqueous solution, meant to trap the byproduct of SiCl4 decomposition, gaseous HCl. […]

The next test has as its system HeLa cells. The test is described as follows: Apoptosis assay (TUNEL / Annexin V) of HeLa cells on inhibitor-coated Si NWs after actinomycin-D and TNF-α. The conditions noted are these: Si NWs treated with 100 mM inhibitor; actinomycin-D 1 μg/mL, TNF-α 2 ng/mL; cells on uncoated NWs died. The procedure:
The silanized Si NWs (produced via CVD prior to silanization) were treated with 100 mM Ac-DEVD-CHO, an apoptosis inhibitor, in PBS at room temperature for 1 hr, and washed in PBS three times for 2 min each. HeLa cells (5×10^4 cells/mL) in DMEM media were added onto the Si NWs, and cultured in a CO2 incubator at 37° C. overnight. The cell treated Si NWs were then transferred into a fresh DMEM media containing actinomycin-D at the final concentration of 1 μg/mL, and incubated in a CO2 incubator at 37° C. for 30 min, followed by addition of TNF-α at the final concentration of 2 ng/mL. After incubation in CO2 incubator at 37° C. for indicated hours, the cells on the Si NWs were assayed for apoptosis.
Cells were analyzed for apoptosis by the Terminal Deoxynucleotide Transferase dUTP Nick End Labeling (TUNEL) assay or by the Annexin V assay. TUNEL staining was performed using the apoptosis detection kit according to the manufacturer's protocol with minor modifications. […] After blocking, streptavidin-Cy3 at 20 μg/mL and WGA Alexa Fluor 488 at 50 μg/mL were incubated with the Si NWs for 30 min at room temperature, and washed in PBC three times for 5 min each, followed by examination under a fluorescence microscope. […] After incubation for 15 min at room temperature and washes in binding buffer three times for 1 min each, cells were analyzed under a fluorescence microscope.

Test [2] has as its system Mouse embryonic stem cells (mES cells). The test is described as follows: Si NW delivery into mouse embryonic stem cells. Particulars: delivered by Si NWs. The procedure:
Mouse embryonic stem cells (mES cells) were also used in this study. Delivery of molecules (including Cre Recombinase proteins) into mES cells was carried out in a manner similar to that described in Example 3.

Consider `Nc1ccn([C@@H]2O[C@H](CO)[C@@H](O)[C@@H]2O)c(=O)n1` [Ara-C, Cytarabine], for which the “proliferation of glial-like cell plated atop Ara-C coated NWs” value in test [1] (Ara-C 1 mg/mL, 5 uL coated on silanized CVD Si NWs, examined on sixth day) was “survived but did not proliferate”. In test [1] (Ara-C coated NWs, regions without NWs showed only mitotic cell types, sixth day), the “cell type mixture in regions containing NWs” value is recorded as “neuron heavy”.

For Ac-DEVD-CHO, the “cell survival after apoptosis induction” value in the test with HeLa cells is “survived”.

B1: Cre Recombinase proteins: Cre Recombinase proteins delivered by Si NWs into mES cells (protein, UniProt P06956 1-343, looked up)
Recombinase cre: MSNLLTVHQNLPALPVDATSDEVRKNLMDMFRDRQAFSEHTWKMLLSVCRSWAAWCKLNNRKWFPAEPEDVRDYLLYLQARGLAVKTIQQHLGQLNMLHRRSGLPRPSDSNAVSLVMRRIRKENVDAGERAKQALAFERTDFDQVRSLMENSDRCQDIRNLAFLGIAYNTLLRIAEIARIRVKDISRTDGGRMLIHIGRTKTLVSTAGVEKALSLGVTKLVERWISVSGVADDPNNYLFCRVRKNGVAAPSATSQLSTRALEGIFEATHRLIYGAKDDSGQRYLAWSGHSARVGAARDMARAGVSIPEIMQAGGWTNVNIVMNYIRNLDSETGAMVRLLEDGD
For B1, the “EGFP expression in transgenic foxed-eGFP mES cells” value in test [2] is reported as “expressed EGFP”.

These data come from patent US9304132B2, “Molecular delivery with nanowires” (President and Fellows of Harvard College, priority 2009, dated 2016).
